Data set [1] has as its system skin. The data set can be described thus: skin irritation on transdermal administration (inventors' finding). The data set is classed as in vivo. The source says:
According to this preferred embodiment, a pharmaceutically acceptable salt of fluoxetine is coadministered with an anti-irritant, preferably a corticosteroid such as hydrocortisone.
Other salts which provide the necessary flux and irritation levels can be determined in accordance with the principles of the teachings of this invention.

How the values of data set [2] were obtained: The experiment was carried out using standard glass diffusion cells which consist of a donor compartment with a 7.5 ml capacity, and a receptor compartment with a 22 ml capacity. A circular piece of epidermis was placed in each diffusion cell (permeation area=2.27 cm^2) in a horizontal position between a lower capped receptor compartment and an upper capped donor compartment. The receptor compartment has both a venting tube (uncapped) and a sampling port (capped). The stratum corneum side of the epidermis faced the donor compartment. An O-ring was positioned between the epidermis and the donor compartment, and a clamp held the compartments together. The receptor solution, 22 ml of 0.001 M phosphoric acid solution, pH 3.2, was added to each receptor compartment. The cells were placed in a temperature controlled water bath shaker at 35° C. and allowed to come to temperature before the donor solution was added.
At each time interval, the receptor solution was removed from the test cell and replaced with an equal volume of fresh receptor solution previously equilibrated at 35° C. […] From the drug concentration and the volume of the receptor solutions, the area of permeation and the time interval, the flux of the drug through the epidermis was calculated as follows: (drug concentration×volume of receptor)/(area×time)=flux (μg/cm^2·hr).
Transdermal fluxes were obtained using human epidermis at 35° C. in standard diffusion cells using the procedure set forth in Example 1. FIG. 6 graphically depicts the results.
Transdermal fluxes were obtained using human epidermis at 35° C. in standard diffusion cells using the procedure set forth in Example 1.

The conditions of data set [3]: administered orally as fluoxetine hydrochloride (Prozac), 10 mg or 20 mg daily doses, cited from earlier work.

Here are results for 2 molecules from patent US7011844B2 (Alza Corporation, priority 1996, dated 2006).

On to `CNCCC(Oc1ccc(C(F)(F)F)cc1)c1ccccc1` (racemic) [fluoxetine, (±)-N-methyl-γ-[4-(trifluoromethyl)-phenoxy] benzenepropanamine], for which the “skin irritation when administered transdermally” value in data set [1] (in vivo) is on record as “moderately to severely irritating”. For the same molecule, in data set [2] (10% fluoxetine base in oil/petrolatum with 0-10% methyl laurate, FIG. 6), the “effect of methyl laurate by itself on fluoxetine flux” value is given as “did not significantly increase”. In addition, the “increase of fluoxetine flux by addition of GML” value in data set [2] (10% fluoxetine base in oil/petrolatum with 2.5-10% GML, FIG. 5) was “two to five fold”. Besides, the “effect of the combination of methyl laurate and GML on fluoxetine flux” value in data set [2] (10% fluoxetine base in oil/petrolatum with 5% methyl laurate and 0-10% GML, FIG. 7, compared with GML or methyl laurate individually) is on record as “synergistic effect”. Moreover, the “elimination half-life, averaging” value in data set [3] (average) was 48 to 72 h. In addition, the elimination half-life in data set [3] is 24 to 220 h.

In the case of fluoxetine acetate, the “skin irritation when administered transdermally” value in data set [1] (transdermal administration, base or salt form as labelled) is listed as “reduced irritation levels”.
